Laboratory results reported in patent US20090131317A1, “COMPOUNDS AND PEPTIDES THAT BIND THE TRAIL RECEPTOR” (AFFYMAX, INC., priority 2007, published 2009).
“And” between values parts separate entries of the source, which are not always exact repeats. Equal entries are not always repeated. Where two headings read alike, the source gives them in different places. Numbered stars: 1 amine (or outer) side, 2 acyl side, 3 side chain; on linkers, the order of the positions; unused ones are H or OH. Bridge positions count the residues as written; N and C are the ends. Peptide text beside a SMILES is read from it. I, II: the chains in the order shown. Diglycolyl = O=C(COCC(=O)[*:2])[*:1]

Tests used:
[1] = Apoptotic (functional) activity of peptides of FIG. 5, assay not named; assay type: cell-based; settings: FIG. 5, role of the C-terminal leucine
[2] = target: T1, human TRAIL R2 (Homo sapiens, UniProt O14763); assay: AlphaQuest TRAIL R2 receptor binding competition assay (AlphaScreen, biotinylated TRAIL ligand vs TRAIL R2-Fc); settings: competition with biotinylated TRAIL ligand
T1 construct: purchased R&D Systems, Minneapolis, Minn
Description: Laser excitation (680 nm) of a photosensitizer in the donor bead generates singlet state oxygen molecules, which react with a chemiluminescer in the acceptor bead to generate a detectable light signal (520-620 nm). Because the singlet O2 molecules have an extremely short half-life (i.e., t ½), a signal is generated only when the donor and acceptor beads are brought into close proximity, by TRAIL binding to the R2 receptor. The presence of unlabeled test peptide that competes with TRAIL for binding to the R2 receptor will prevent this binding, resulting in a measurable decrease in light emission.
Recombinant human TRAIL R2-Fc fusion protein (R&D Systems, Minneapolis, Minn.) is diluted in AlphaQuest® buffer to a concentration of 600 pM, pre-mixed with 1.9 μL Protein A-coated acceptor beads and 1.9 μL streptavidin-coated donor beads (Perkin-Elmer®, Waltham, Mass.), then 2 μL is added to each well of the assay plate. […] The plates are sealed with adhesive sealing film and covered with aluminum foil, centrifuged at 600 rpm for 30 seconds and incubated overnight in the dark. […] The raw data are analyzed using GraphPad Prism® software (La Jolla, Calif.) to calculate IC50 values from a 4-parameter logistic equation.

[3] = test system: HCT-116 cells; assay type: cell-based
Protocol: The apoptotic activity of test peptides is measured using an HCT-116 proliferation assay. The HCT-116 assay is used to measure the activity of TRAIL R2 agonist peptides using the colon carcinoma cell line HCT-116 (ATCC, Manassas, Va.).
In more detail, a peptide homotrimer based on the peptide monomer sequence of SEQ ID NO: 19 (See, FIG. 8B) is tested for functional activity using the HCT-116 proliferation assay. HCT-116 cells are incubated for one to two days in the presence of serially diluted peptide dimers or peptide trimers. […]
Cell viability is measured using an MTT colorimetric viability assay, a colorimetric assay that analyzes the number of viable cells by measuring the ability of mitochondrial dehydrogenase enzyme in the viable cells to cleave tetrazolium salts added to the culture medium [See, Mosmann (1983) J. Immunol. […] Using this assay, cell proliferation is assessed after 24-48 hours by adding 10 μL of MTT stock solution (ATCC, Manassas, Va.) to the wells. […] After incubation overnight in a 37° C., 5% CO2 incubator, the plates are quantified by reading the optical density at 595 nm (OD595) in a SpectraMax M5 microplate reader (Molecular Devices, Sunnyvale, Calif.). The data are analyzed using GraphPad® Prism software (La Jolla, Calif.) to calculate IC50 values from a 4-parameter logistic equation.

[4] = test system: Jurkat cells; assay type: cell-based
Protocol: The apoptotic activity of test peptides is measured using a Jurkat proliferation assay.
Jurkat cells are obtained from the American Type Culture Collection (ATCC, Manassas, Va.) and are maintained in RPMI-1640 medium supplemented with 10% FBS, 100 U/mL penicillin, and 100 […] (Growth Medium). […] Cells are resuspended at a density of 1×10^6 cells/mL in Growth Medium, and 50 μl cells is added to each well of the assay plates. The plates are incubated in a 37° C., 5% CO2 incubator for 24-48 hours. Proliferation is assessed by adding 10 μL of MTT stock solution (ATCC, Manassas, Va.) to the wells. The plates are incubated in a 37° C., 5% CO2 incubator for another 2-4 hours, followed by the addition of 100 μL of 20% SDS with 0.01 N HCl. After incubation overnight in a 37° C., 5% CO2 incubator, the plates are quantified by reading the optical density at a wavelength of 595 nm (OD595) in a SpectraMax® M5 microplate reader (Molecular Devices, Sunnyvale, Calif.). The data are analyzed using GraphPad Prism® software (La Jolla, Calif.) to calculate IC50 values from a 4-parameter logistic equation.

| SMILES | apoptotic activity (observed or not) [1] | IC50 ([2]; single exemplary values and ranges over assays, read-out: binding affinity / binding activity (IC50)) | EC50 [3] [nM] | IC50 ([2]; single values and ranges over assays, read-out: binding activity (IC50)) | EC50 [4] [nM] |
| --- | --- | --- | --- | --- | --- |
| CC[C@H](C)[C@@H]1NC(=O)[C@H](CCCNC(=N)N)NC(=O)[C@H](CC(N)=O)NC(=O)[C@H](CC(=O)O)NC(=O)[C@H](CC(C)C)NC(=O)[C@@H](NC(=O)[C@H](CC(=O)O)NC(=O)[C@H](Cc2c[nH]c3ccccc23)NC(C)=O)CSSC[C@@H](C(=O)N[C@H](C(=O)N[C@@H](CCCCN)C(N)=O)C(C)C)NC(=O)[C@H](CCC(N)=O)NC(=O)[C@H](CCCNC(=N)N)NC(=O)[C@H](CCCNC(=N)N)NC(=O)CNC1=O [SEQ ID NO: 28 monomer] (Ac-WDCLDNRIGRRQCVK-NH2; disulfide 3-13) | no apoptotic activity is observed | – | – | – | – |
| CC[C@H](C)[C@@H]1NC(=O)[C@H](CCCNC(=N)N)NC(=O)[C@H](CC(N)=O)NC(=O)[C@H](CC(=O)O)NC(=O)[C@H](CC(C)C)NC(=O)[C@@H](NC(=O)[C@H](CC(=O)O)NC(=O)[C@H](Cc2c[nH]c3ccccc23)NC(C)=O)CSSC[C@@H](C(=O)N[C@H](C(=O)N[C@@H](CCCCN)C(=O)N[C@@H](CC(C)C)C(N)=O)C(C)C)NC(=O)[C@H](CCC(N)=O)NC(=O)[C@H](CCCNC(=N)N)NC(=O)[C@H](CCCNC(=N)N)NC(=O)CNC1=O [SEQ ID NO: 19 monomer] (Ac-WDCLDNRIGRRQCVKL-NH2; disulfide 3-13) | exhibits apoptotic activity | ~49 nM and 15 to 104 nM and 1 to 56 nM | – | – | – |
| CC[C@H](C)[C@@H]1NC(=O)[C@H](CCCNC(=N)N)NC(=O)[C@H](CC(N)=O)NC(=O)[C@H](CC(=O)O)NC(=O)[C@H](CC(C)C)NC(=O)[C@@H](NC(=O)[C@H](CC(=O)O)NC(=O)[C@H](Cc2c[nH]c3ccccc23)NC(C)=O)CSSC[C@@H](C(=O)N[C@H](C(=O)N[C@@H](CCCCNC(=O)COCC(=O)NCCCC[C@H](NC(=O)[C@@H](NC(=O)[C@@H]2CSSC[C@H](NC(=O)[C@H](CC(=O)O)NC(=O)[C@H](Cc3c[nH]c4ccccc34)NC(C)=O)C(=O)N[C@@H](CC(C)C)C(=O)N[C@@H](CC(=O)O)C(=O)N[C@@H](CC(N)=O)C(=O)N[C@@H](CCCNC(=N)N)C(=O)N[C@@H]([C@@H](C)CC)C(=O)NCC(=O)N[C@@H](CCCNC(=N)N)C(=O)N[C@@H](CCCNC(=N)N)C(=O)N[C@@H](CCC(N)=O)C(=O)N2)C(C)C)C(=O)N[C@@H](CC(C)C)C(N)=O)C(=O)N[C@@H](CC(C)C)C(N)=O)C(C)C)NC(=O)[C@H](CCC(N)=O)NC(=O)[C@H](CCCNC(=N)N)NC(=O)[C@H](CCCNC(=N)N)NC(=O)CNC1=O [SEQ ID NO: 19 homodimer] (I: Ac-WDCLDNRIGRRQCVKL-NH2 / II: Ac-WDCLDNRIGRRQCVKL-NH2; disulfide I:3-I:13, II:3-II:13; linker I:15-II:15 via Diglycolyl) | – | – | ~1620 | ~7000 nM and 1000 to 56000 nM | 945 to 7000 |
